Experimental data published in patent US20100179158A1, “INHIBITORS OF CYCLIC AMP PHOSPHODIESTERASES” (priority 2007, published 2010).

Assays:
PDE4A1 [1] = molecular target: T1, PDE4A1 (Mus musculus, UniProt O89084); assay: IC50 on PDE4A1; assay type: biochemical, murine; settings: read-out: IC50, PDE 4A1
T1 construct: targets used in the assays are full-length proteins (as opposed to simply the catalytic domain); expressed in transfected cells; host or cells: Schizosaccharomyces pombe, gene integrated at the cgs2 locus
T1 sequence (O89084 1-610 isoform O89084-2): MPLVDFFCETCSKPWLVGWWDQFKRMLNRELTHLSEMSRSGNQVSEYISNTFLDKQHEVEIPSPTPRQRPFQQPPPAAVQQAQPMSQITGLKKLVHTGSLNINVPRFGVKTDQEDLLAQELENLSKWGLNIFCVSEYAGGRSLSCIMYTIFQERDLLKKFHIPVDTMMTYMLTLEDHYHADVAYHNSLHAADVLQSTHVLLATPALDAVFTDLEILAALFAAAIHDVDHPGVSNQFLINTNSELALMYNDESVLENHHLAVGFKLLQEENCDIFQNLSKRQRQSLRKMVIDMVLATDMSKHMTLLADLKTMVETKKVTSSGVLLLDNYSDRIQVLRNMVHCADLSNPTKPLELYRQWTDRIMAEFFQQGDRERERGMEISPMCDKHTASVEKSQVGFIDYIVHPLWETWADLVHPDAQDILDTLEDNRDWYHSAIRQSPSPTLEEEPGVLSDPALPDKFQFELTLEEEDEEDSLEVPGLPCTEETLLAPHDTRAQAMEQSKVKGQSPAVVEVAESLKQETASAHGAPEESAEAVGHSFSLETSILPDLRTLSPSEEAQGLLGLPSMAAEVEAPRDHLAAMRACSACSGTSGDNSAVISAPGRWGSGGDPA

PDE4D3 = molecular target: T2, PDE4D3 (Homo sapiens, UniProt Q08499); assay: Fission yeast 5FOA growth assay, strain expressing PDE4D3; assay type: cell-based; settings: 2 uM compound, 5FOA growth screen
T2 construct: targets used in the assays are full-length proteins (as opposed to simply the catalytic domain); expressed in transfected cells; host or cells: Schizosaccharomyces pombe, gene integrated at the cgs2 locus
Procedure: Cells were pregrown in EMM medium [MP Biomedicals (Solon, OH), 3% glucose, filter-sterilized to avoid carmelization, which would introduce variability into the optical density of the medium] containing from 0 mM to 2.5 mM cAMP (or either 0.5 mM or 1.0 mM cGMP). This was to repress expression of the fbp1-ura4 reporter prior to exposure of cells to 5FOA medium. Cells were grown at 30° C. to exponential phase (approximately 10^7 cells/ml). Cells were collected by centrifugation and resuspended in 5FOA medium, and 25 μl were transferred to 384-well microtiter dishes (untreated, with flat clear bottoms) that had been pre-filled with 25 μl 5FOA medium and pre-pinned with 100 nl of compounds (stock solutions were generally 10 mM). Starting cell concentrations ranged from 0.5×10^5 to 4×10^5 cells/ml depending on the screening strain. […] Other positive control dishes contained 5 mM cAMP in the 5FOA medium for PDEs that lack appropriate control compounds. Cultures were grown for 48 hours at 30° C., sealed in an airtight container with moist paper towels to prevent evaporation. Optical densities (OD600) of cultures were measured using a microplate reader. Bioinformatic analysis of the results to determine composite Z scores was performed as previously described (1, 3).

PDE4B3 = molecular target: T3, PDE4B3 (Mus musculus, UniProt Q8VBU5); assay: cAMP assay in yeast strain expressing PDE4B3; assay type: cell-based, murine
T3 construct: targets used in the assays are full-length proteins (as opposed to simply the catalytic domain); expressed in transfected cells; host or cells: Schizosaccharomyces pombe, gene integrated at the cgs2 locus
T3 sequence (Q8VBU5 1-721): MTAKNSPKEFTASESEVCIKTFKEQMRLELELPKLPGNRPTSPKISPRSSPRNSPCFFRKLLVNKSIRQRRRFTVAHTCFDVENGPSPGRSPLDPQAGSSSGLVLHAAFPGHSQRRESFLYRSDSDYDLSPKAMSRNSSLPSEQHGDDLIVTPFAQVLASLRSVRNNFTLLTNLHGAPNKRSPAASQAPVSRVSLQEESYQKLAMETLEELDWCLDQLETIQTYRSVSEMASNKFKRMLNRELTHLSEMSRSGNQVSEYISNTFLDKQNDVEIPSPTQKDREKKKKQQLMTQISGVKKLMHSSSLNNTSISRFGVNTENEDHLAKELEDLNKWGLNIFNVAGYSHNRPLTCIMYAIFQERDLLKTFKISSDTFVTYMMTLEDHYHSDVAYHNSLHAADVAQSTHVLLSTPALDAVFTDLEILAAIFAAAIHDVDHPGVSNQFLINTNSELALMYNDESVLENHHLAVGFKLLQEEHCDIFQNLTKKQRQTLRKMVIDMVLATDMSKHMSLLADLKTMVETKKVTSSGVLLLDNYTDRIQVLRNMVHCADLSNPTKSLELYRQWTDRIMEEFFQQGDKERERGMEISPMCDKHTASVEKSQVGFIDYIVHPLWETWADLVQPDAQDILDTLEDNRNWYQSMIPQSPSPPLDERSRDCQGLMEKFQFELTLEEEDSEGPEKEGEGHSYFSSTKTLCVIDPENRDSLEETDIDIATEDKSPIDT

PDE4A1 [2] = molecular target: T1, PDE4A1; assay: cAMP assay in yeast strain expressing PDE4A1; assay type: cell-based, murine

T2 sequence (Q08499 1-673 isoform Q08499-2): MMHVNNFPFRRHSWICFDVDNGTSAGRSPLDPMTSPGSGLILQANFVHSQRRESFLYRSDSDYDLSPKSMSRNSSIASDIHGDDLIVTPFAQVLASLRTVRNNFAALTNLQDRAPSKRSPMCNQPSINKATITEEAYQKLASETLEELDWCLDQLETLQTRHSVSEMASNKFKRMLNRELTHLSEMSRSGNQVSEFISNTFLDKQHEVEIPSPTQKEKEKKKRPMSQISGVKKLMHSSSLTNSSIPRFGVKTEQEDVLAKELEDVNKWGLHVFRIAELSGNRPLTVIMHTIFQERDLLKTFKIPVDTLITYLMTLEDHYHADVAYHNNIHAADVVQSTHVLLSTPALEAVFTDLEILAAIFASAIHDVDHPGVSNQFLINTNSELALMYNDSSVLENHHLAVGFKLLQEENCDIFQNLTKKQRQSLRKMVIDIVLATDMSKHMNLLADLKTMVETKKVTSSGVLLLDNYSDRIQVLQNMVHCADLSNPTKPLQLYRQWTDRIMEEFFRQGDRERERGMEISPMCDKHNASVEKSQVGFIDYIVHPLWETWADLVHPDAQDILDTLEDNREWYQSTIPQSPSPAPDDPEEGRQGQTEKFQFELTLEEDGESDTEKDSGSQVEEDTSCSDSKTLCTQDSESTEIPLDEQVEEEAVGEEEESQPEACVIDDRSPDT

Row | IC50 (PDE4A1 [1]) [nM] | 2 Assay (2 uM), PDE 4D3 (PDE4D3) | cAMP Response (% rolipram), PDE 4B3 (PDE4B3) [% rolipram] | cAMP Response (% rolipram), PDE 4A1 (PDE4A1 [2]) [% rolipram] | Compound
1 | 650 | – | – | – | Cc1ccc2c(c1)c1nc3ccccc3nc1n2C(C)C [Compound 41]
2 | – | 42.32 | 51.00 | 54.00 | COC(=O)C1=C(C)N(C2CCCCC2)C(=O)/C1=C\c1cccs1 [Compound 22]
3 | 100 | 0.00 | 71.00 | 78.00 | COC(=O)C1=C(C)N(c2ccccc2Cl)C(=O)/C1=C\c1cccs1 [Compound 27]
